Patent US8138145B2, “Hybrid oligomers, their preparation process and pharmaceutical compositions containing them” (Centre National de la Recherche Scientifique (SNRS), priority 2005, dated 2012)
Converted amounts (≈) assume the structure as drawn.

Key:
Type in all cases: cell-based
[1] = tested on: Escherichia Coli ATCC 25922; conditions: Mueller-Hinton broth, 37° C., 18 to 20 hours; for Minimal bactericidal concentration, Escherichia Coli ATCC 25922: plate counting on sheep blood agar
Method: (§1) Four strains were selected: Escherichia Coli ATCC 25922, Staphylococcus Aureus ATCC 25923, Pseudomonas Aeruginosa ATCC 27853 and a clinical isolated methicillin resistant Staphylococcus Aureus strain. Antibacterial activity of the molecules was tested by dilution method in Mueller-Hinton broth in order to determine the minimal inhibitory concentration (MIC) and the minimal bactericidal concentration (MBC). At least two independent assays were done. Stock solutions were obtained by solubilizing molecule powders in distilled water at concentration of 2.56 mg/mL and serial 2-fold diluted solutions were prepared. Bacterial inoculum was standardized by using direct suspensions of colonies from overnight growth in saline adjusted to a turbidity matching the 0.5 McFarland standard, and diluted to obtain a density comprised between 10^5 CFU/mL and 10^7 CFU/mL. Tubes containing 900 μL of inoculum with 100 μL of molecules solutions were incubated in air at 37° C. for 18 to 20 hours. Purity and inoculum density as well as percentage of viable bacteria in limpid tubes were checked by plate counting on sheep blood agar. Broth not containing any molecule solution was inoculated with each selected bacterial strain as a control for organism viability (growth control). The susceptibility of S. Aureus strains against vancomycin was used as an internal control as well as the activity of melittin.

[2] = tested on: Pseudomonas Aeruginosa ATCC 27853; conditions: Mueller-Hinton broth, 37° C., 18 to 20 hours; for Minimal bactericidal concentration, Pseudomonas Aeruginosa ATCC 27853: plate counting on sheep blood agar
Method: as §1

[3] = tested on: Staphylococcus Aureus ATCC 25923; assay: microbe, parasite or virus in culture; conditions: for Minimal inhibitory concentration, Staphylococcus Aureus ATCC / Minimal bactericidal concentration, Staphylococcus Aureus ATCC: Mueller-Hinton broth, 37° C., 18 to 20 hours; for Minimal bactericidal concentration, Staphylococcus Aureus ATCC: plate counting on sheep blood agar
Method: as §1

[4] = tested on: clinical isolated methicillin resistant Staphylococcus Aureus strain; assay: microbe, parasite or virus in culture; conditions: Mueller-Hinton broth, 37° C., 18 to 20 hours; for Minimal bactericidal concentration, clinical isolated methicillin resistant Staphylococcus Aureus strain: plate counting on sheep blood agar
Method: as §1

| SMILES | Minimal inhibitory concentration, Escherichia Coli ATCC 25922 [1] [µg/mL] | Minimal bactericidal concentration, Escherichia Coli ATCC 25922 [1] [µg/mL] | Minimal inhibitory concentration, Pseudomonas Aeruginosa ATCC 27853 [2] [µg/mL] | Minimal bactericidal concentration, Pseudomonas Aeruginosa ATCC 27853 [2] [µg/mL] | Minimal inhibitory concentration, Staphylococcus Aureus ATCC [3] [µg/mL] | Minimal bactericidal concentration, Staphylococcus Aureus ATCC [3] [µg/mL] | Minimal inhibitory concentration, clinical isolated methicillin resistant Staphylococcus Aureus strain [4] [µg/mL] | Minimal bactericidal concentration, clinical isolated methicillin resistant Staphylococcus Aureus strain [4] [µg/mL] | MIC ([3]; Staphylococcus aureus, ATCC25923, read-out: Minimal inhibitory concentration, Staphylococcus Aureus ATCC) [µg/mL] | MIC ([4]; Staphylococcus aureus, read-out: Minimal inhibitory concentration, clinical isolated methicillin resistant Staphylococcus Aureus strain) [µg/mL] |
| --- | --- | --- | --- | --- | --- | --- | --- | --- | --- | --- |
| CC(C)NC(=O)N[C@H](CNC(=O)N[C@@H](CCCCN)CNC(=O)N[C@H](CNC(=O)N[C@H](CNC(=O)N[C@@H](CCCCN)CNC(=O)N[C@H](CNC(=O)N[C@@H](CCCCN)CNC(N)=O)Cc1c[nH]c2ccccc12)C(C)C)Cc1c[nH]c2ccccc12)C(C)C [Mol-8] | 32 (≈ 25.4 µM) | 256 (≈ 203 µM) | 64 (≈ 50.8 µM) | >256 | 32 (≈ 25.4 µM) | 32 (≈ 25.4 µM) | – | – | – | – |
| CC(C)NC(=O)N[C@H](CNC(=O)N[C@@H](CCCCN)CNC(=O)N[C@H](CNC(=O)N[C@H](CNC(=O)N[C@@H](CCCCN)CNC(=O)N[C@H](CNC(=O)N[C@@H](CCCCN)CNC(=O)N[C@H](CCC(N)=O)C(C)C)Cc1c[nH]c2ccccc12)C(C)C)Cc1c[nH]c2ccccc12)C(C)C [Mol-4] | 32 (≈ 23.1 µM) | 64 (≈ 46.1 µM) | 128 (≈ 92.2 µM) | 256 (≈ 184 µM) | 8 (≈ 5.76 µM) | <16 | 16 (≈ 11.5 µM) | 64 (≈ 46.1 µM) | – | – |
| CC[C@H](C)[C@H](NC(=O)CN)C(=O)NCC(=O)N[C@@H](C)C(=O)N[C@H](C(=O)N[C@@H](CC(C)C)C(=O)N[C@@H](CCCCN)C(=O)N[C@H](C(=O)N[C@@H](CC(C)C)C(=O)N[C@H](C(=O)N[C@H](C(=O)NCC(=O)N[C@@H](CC(C)C)C(=O)N1CCC[C@H]1C(=O)N[C@@H](C)C(=O)N[C@@H](CC(C)C)C(=O)N[C@H](C(=O)N[C@@H](CO)C(=O)N[C@@H](Cc1c[nH]c2ccccc12)C(=O)N[C@H](C(=O)N[C@@H](CCCCN)C(=O)N[C@@H](CCCNC(=N)N)C(=O)N[C@@H](CCCCN)C(=O)N[C@@H](CCCNC(=N)N)C(=O)N[C@@H](CCC(N)=O)C(=O)N[C@@H](CCC(N)=O)C(N)=O)[C@@H](C)CC)[C@@H](C)CC)[C@@H](C)O)[C@@H](C)O)C(C)C)C(C)C [mellitin, reference compound] | – | >256 | >256 | >256 | – | – | 32 (≈ 11.2 µM) | 128 (≈ 45 µM) | – | – |
| CN[C@H](CC(C)C)C(=O)N[C@H]1C(=O)N[C@@H](CC(N)=O)C(=O)N[C@H]2C(=O)N[C@H]3C(=O)N[C@H](C(=O)N[C@H](C(=O)O)c4cc(O)cc(O)c4-c4cc3ccc4O)[C@H](O)c3ccc(c(Cl)c3)Oc3cc2cc(c3O[C@@H]2O[C@H](CO)[C@@H](O)[C@H](O)[C@H]2O[C@H]2C[C@](C)(N)[C@H](O)[C@H](C)O2)Oc2ccc(cc2Cl)[C@H]1O [vancomycin, reference compound] | – | – | – | – | – | – | – | – | 2 (≈ 1.38 µM) | 1 (≈ 0.69 µM) |
